Consider twelve compounds from patent US7416848B2, “DNA encoding SNORF25 receptor” (H. Lundbeck A/S, priority 1999, dated 2008).

A word on the EC50: it is the concentration at which the effect is half-maximal.

For one test, the system named is untransfected CHO cells. Put plainly: cAMP release in native untransfected CHO cells. In kind it is cell-based, Chinese hamster. Particulars: FIG. 11A. As for the experimental part: (§1) CHO cells are grown on 150 mm plates in HAM's F-12 medium with supplements (10% bovine calf serum, 4 mM L-glutamine and 100 units/ml penicillin/100 μg/ml streptomycin) at 37° C., 5% CO2. Stock plates of CHO cells are trypsinized and split 1:8 every 3–4 days.
The receptor-mediated stimulation or inhibition of cyclic AMP (cAMP) formation may be assayed in cells expressing the receptors. According to one method, cells are plated in 96-well plates or other vessels and preincubated in a buffer such as HEPES buffered saline (NaCl (150 mM), CaCl2 (1mM), KCl (5 mM), glucose (10 mM)) supplemented with a phosphodiesterase inhibitor such as 5 mM theophylline, with or without protease inhibitor cocktail (For example, a typical inhibitor cocktail contains 2 μg/ml aprotinin, 0.5 mg/ml leupeptin, and 10 μg/ml phosphoramidon.) for 20 min at 37° C., in 5% CO2. Test compounds are added with or without […] and incubated for an additional 10 min at 37° C. The medium is then aspirated and the reaction stopped by the addition of 100 mM HCl or other methods. The plates are stored at 4° C. for 15 min, and the cAMP content in the stopping solution is measured by radioimmunoassay. Radioactivity may be quantified using a gamma counter equipped with data reduction software. Specific modifications may be performed to optimize the assay for the receptor or to alter the detection method of cAMP. […]

For test [1], the system named is mock-transfected Cos-7 cells. Put plainly: cAMP in mock-transfected Cos-7 cells. Format: cell-based. Particulars: preliminary. As for the experimental part: (§2) COS-7 cells are grown on 150 mm plates in DMEM with supplements (Dulbecco's Modified Eagle Medium with 10% bovine calf serum, 4 mM glutamine, 100 units/ml penicillin/100 μg/ml streptomycin) at 37° C., 5% CO2. Stock plates of COS-7 cells are trypsinized and split 1:6 every 3–4 days.
(§3) A typical protocol for the electroporation method as applied to Cos-7 cells is described as follows. Cells to be used for transfection are split 24 hours prior to the transfection to provide flasks which are subconfluent at the time of transfection. The cells are harvested by trypsinization resuspended in their growth media and counted. 5×10^6 cells are suspended in 300 μl of DMEM and placed into an electroporation cuvette. 8 μg of receptor DNA plus 8 μg of any additional DNA needed (e.g. G protein expression vector, reporter construct, antibiotic resistance marker, mock vector, etc.) is added to the cell suspension, the cuvette is placed into a BioRad Gene Pulser and subjected to an electrical pulse (Gene Pulser settings: 0.25 kV voltage, 950 μF capacitance). […]
(§4) The receptor-mediated stimulation or inhibition of cyclic AMP (cAMP) formation may be assayed in cells expressing the receptors. […] The plates are stored at 4° C. for 15 min, and the cAMP content in the stopping solution is measured by radioimmunoassay. Radioactivity may be quantified using a gamma counter equipped with data reduction software. […]

Another test concerns the target PAF receptors (Homo sapiens, UniProt P25105). Particulars: cloned or native PAF receptors; cited from earlier work.
Test [2] deals with SNORF25 receptor. Put plainly: cAMP release in Cos-7 cells transiently transfected with SNORF25. Particulars: Cos-7 cells transiently transfected with SNORF25; preliminary, data not shown. Format: cell-based. The protocol: as §2, §3, §4
Test [3] addresses T1, SNORF25 (Homo sapiens, UniProt Q8TDV5).
T1 sequence (Q8TDV5 1-335): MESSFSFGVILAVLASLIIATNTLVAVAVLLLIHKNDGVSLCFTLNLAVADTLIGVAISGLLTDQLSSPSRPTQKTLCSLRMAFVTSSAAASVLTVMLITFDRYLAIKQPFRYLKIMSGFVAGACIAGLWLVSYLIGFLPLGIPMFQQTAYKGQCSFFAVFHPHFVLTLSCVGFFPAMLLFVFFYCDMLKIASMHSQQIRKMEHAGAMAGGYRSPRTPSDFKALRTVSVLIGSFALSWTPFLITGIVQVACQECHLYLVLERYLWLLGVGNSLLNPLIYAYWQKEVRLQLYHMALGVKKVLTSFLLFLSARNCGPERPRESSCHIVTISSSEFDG
Description: Stimulation of cAMP release by CHO cells stably expressing hSNORF25 receptors. Format: cell-based. On the set-up: expressed in transfected cells. As to conditions: for stimulation of cAMP: 10 μM, data not shown; for % of PAF(C18) Response: maximum response as % of maximum response produced by PAF(C18) (taken as 100%); for EC50: mean ± S.E.M., at least 3 experiments, CHO cells stably expressing hSNORF25. The protocol:
as §1
Heterologous DNA can be stably incorporated into host cells, causing the cell to perpetually express a foreign protein. Methods for the delivery of the DNA into the cell are similar to those described above for transient expression but require the co-transfection of an ancillary gene to confer drug resistance on the targeted host cell. The ensuing drug resistance can be exploited to select and maintain cells that have taken up the DNA. An assortment of resistance genes are available including but not restricted to neomycin, kanamycin, and hygromycin. For the purposes of studies concerning the receptor of this invention, stable expression of a heterologous receptor protein is typically carried out in, mammalian cells including but not necessarily restricted to, CHO, HEK293, LM(tk−), etc.
(§5) The receptor-mediated stimulation or inhibition of cyclic AMP (cAMP) formation may be assayed in cells expressing the receptors. According to one method, cells are plated in 96-well plates or other vessels and preincubated in a buffer such as HEPES buffered saline (NaCl (150 mM), CaCl2 (1mM), KCl (5 mM), glucose (10 mM)) supplemented with a phosphodiesterase inhibitor such as 5 mM theophylline, with or without protease inhibitor cocktail (For example, a typical inhibitor cocktail contains 2 μg/ml aprotinin, 0.5 mg/ml leupeptin, and 10 μg/ml phosphoramidon.) for 20 min at 37° C., in 5% CO2. Test compounds are added with or without […] and incubated for an additional 10 min at 37° C. The medium is then aspirated and the reaction stopped by the addition of 100 mM HCl or other methods. The plates are stored at 4° C. for 15 min, and the cAMP content in the stopping solution is measured by radioimmunoassay. Radioactivity may be quantified using a gamma counter equipped with data reduction software. Specific modifications may be performed to optimize the assay for the receptor or to alter the detection method of cAMP.
as §5, with “According” for “The receptor-mediated stimulation or inhibition of cyclic AMP (cAMP) formation may be assayed in cells expressing the receptors. According”, “a second” for “one”, “washed 2 times with” for “plated in 96-well plates or other vessels and preincubated in a buffer such as”, “saline, as described above, and incubated overnight. On the day of the experiment, cells are washed 2 times with HEPES” for “saline (NaCl (150 mM), CaCl2 (1mM), KCl (5 mM), glucose (10 mM))”
Several other closely related analogues of PAF namely Lyso-PAF with different carbon chains also stimulated cAMP.

Test [4] concerns isolated rat pancreatic islets. As to conditions: cited from earlier work.
In test [5] the target is T2, SNORF25 receptor (Rattus norvegicus, UniProt Q7TQN8).
T2 construct: the entire coding region was amplified from Rin14b cell line cDNA and rat genomic DNA; expressed in transfected cells; host or cells: CHO cells, transient (electroporation)
T2 sequence (Q7TQN8 with tags, fused parts or gaps limits assumed): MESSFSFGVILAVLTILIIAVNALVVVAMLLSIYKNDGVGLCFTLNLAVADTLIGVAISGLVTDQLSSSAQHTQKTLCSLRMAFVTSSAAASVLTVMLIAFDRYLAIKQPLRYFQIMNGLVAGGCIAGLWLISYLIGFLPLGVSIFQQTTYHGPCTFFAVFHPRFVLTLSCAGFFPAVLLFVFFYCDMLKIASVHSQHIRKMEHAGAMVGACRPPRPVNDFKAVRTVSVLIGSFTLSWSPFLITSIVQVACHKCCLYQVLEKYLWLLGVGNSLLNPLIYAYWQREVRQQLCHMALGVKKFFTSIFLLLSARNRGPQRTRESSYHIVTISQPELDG
Put plainly: cAMP release in CHO cells transiently transfected with SNORF25. Format: cell-based. Particulars: 10 μM; SNORF25-transfected cells (FIG. 6). The protocol:
as §1, §3, §4

In test [6] the target is T1, SNORF25. Description: CFTR Cl- currents in Xenopus oocytes co-injected with SNORF25 and CFTR mRNA. Format: cell-based. On the set-up: from linearized plasmids or PCR products containing the complete coding region of the genes; expressed in transfected cells; host or cells: Xenopus laevis oocytes injected with SNORF25 mRNA (with or without CFTR mRNA). As to conditions: 10 μM; for CFTR current response: oocytes with SNORF25 and CFTR mRNA (FIG. 12A). As for the experimental part:
Oocytes are harvested from Xenopus laevis and injected with mRNA transcripts as previously described (Quick and Lester, 1994; Smith et al., 1997). The test receptor of this invention and Gα subunit RNA transcripts are synthesized using the T7 polymerase (“Message Machine,” Ambion) from linearized plasmids or PCR products containing the complete coding region of the genes. Oocytes are injected with 10 ng synthetic receptor RNA and incubated for 3–8 days at 17 degrees. Three to eight hours prior to recording, oocytes are injected with 500 pg promiscuous Gα subunits mRNA in order to observe coupling to Ca^++ activated Cl^− currents.
Each of the compounds was tested at 10 μM. Oocytes expressing SNORF25 generated inward Cl^− currents, consistent with CFTR activation, in response to all four of the ligands.
The activity of SNORF25 was therefore tested in oocytes co-injected with mRNA encoding SNORF25 and mRNA encoding CFTR. In 17 out of 39 of these oocytes an inward Cl^− current (105±20 nA) was measured in response to the application of 10 μM all-trans-retinoic acid (See FIGS. 9A–9C and 10).

In test [7] the target is B2 adrenergic receptor (B2AR) (Homo sapiens, UniProt P07550). As to conditions: 1 μM; holding potential −70 mV (FIG. 9C).
B2 adrenergic receptor (B2AR), sequence (P07550 whole entry, species assumed): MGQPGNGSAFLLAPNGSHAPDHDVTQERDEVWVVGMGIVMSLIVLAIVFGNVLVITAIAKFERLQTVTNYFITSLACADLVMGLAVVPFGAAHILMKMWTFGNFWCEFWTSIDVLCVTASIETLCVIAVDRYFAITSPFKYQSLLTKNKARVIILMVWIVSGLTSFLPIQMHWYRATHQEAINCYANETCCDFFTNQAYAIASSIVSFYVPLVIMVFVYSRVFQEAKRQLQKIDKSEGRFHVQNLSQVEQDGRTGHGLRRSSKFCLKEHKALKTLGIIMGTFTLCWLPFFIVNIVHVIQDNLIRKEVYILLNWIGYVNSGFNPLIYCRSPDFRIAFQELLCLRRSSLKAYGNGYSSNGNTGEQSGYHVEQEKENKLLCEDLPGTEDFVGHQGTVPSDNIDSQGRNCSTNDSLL

PAF receptors, sequence (P25105 whole entry): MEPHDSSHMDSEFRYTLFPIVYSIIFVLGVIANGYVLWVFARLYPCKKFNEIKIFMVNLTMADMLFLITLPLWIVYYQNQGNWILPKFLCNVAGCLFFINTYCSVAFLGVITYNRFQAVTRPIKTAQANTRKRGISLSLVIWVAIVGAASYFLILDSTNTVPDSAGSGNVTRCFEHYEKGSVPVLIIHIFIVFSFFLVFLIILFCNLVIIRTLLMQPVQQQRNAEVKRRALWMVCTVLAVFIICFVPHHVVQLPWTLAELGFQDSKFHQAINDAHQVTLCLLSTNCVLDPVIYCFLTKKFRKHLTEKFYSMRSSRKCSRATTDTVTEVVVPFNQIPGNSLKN

For “1-O-alkyl-2-acetyl-sn-glycero-3-phosphocholine [PAF]”, the “cAMP response in untransfected CHO cells” value in the test with untransfected CHO cells is given as “No response”. In test [1], the “stimulation of cAMP levels in mock-transfected cells” value is “not mock-transfected cells”. In addition, on PAF receptors, the “potency / activation at typical PAF receptors” value is given as “nanomolar potencies”. In addition, the “stimulation of cAMP levels” value in the test on SNORF25 receptor [2] was 4–5 fold. Further, the “Emax of cAMP response” value on SNORF25 [3] (CHO cells expressing SNORF25 (FIG. 11A)) is on record as 200–400 % basal. The “potency in inducing insulin secretion relative to lyso-PAF” value in test [4] is “nearly equipotent to lyso-PAF”.

Regarding `CCCCC/C=C\C/C=C\C/C=C\C/C=C\CCCC(=O)O` [AA], the “stimulation of cAMP” value at SNORF25 [3] is given as “no stimulation of cAMP”.

Turning to `CC1=C(/C=C/C(C)=C/C=C/C(C)=C/CO)C(C)(C)CCC1` [All-trans retinol, all-trans-retinol], the “increase in cAMP” value on SNORF25 receptor [5] is on record as “failed to produce an increase in cAMP”.

For `CC1=C(/C=C/C(C)=C/C=C/C(C)=C/C=C/C=C(C)/C=C/C=C(C)/C=C/C2=C(C)CCCC2(C)C)C(C)(C)CCC1` [Atb carotene], the “stimulation of cAMP” value at SNORF25 [3] is on record as “no stimulation of cAMP”.

For the compound `CCCCCCCCCCCCCCCCOC[C@@H](O)COP(=O)([O-])OCC[N+](C)(C)C` [Lyso-PAF(C16)], the “inward Cl- current amplitude” value at SNORF25 [6] (oocytes with SNORF25 and CFTR mRNA) is listed as 61.7±7.8 nA. At SNORF25 [6], the CFTR current response entry is on record as “robust responses”. Moreover, at SNORF25 [3], the “% of PAF(C18) Response” value stood at 120% and the response was half-maximal at 3.48 ± 1.13 µM (EC50).

For the compound `CCCCCCCCCCCCCCCCCCOC[C@@H](O)COP(=O)([O-])OCC[N+](C)(C)C` [Lyso-PAF(C18)], the CFTR current response entry on SNORF25 [6] is given as “robust responses”. Also, at SNORF25 [3], the “% of PAF(C18) Response” value worked out at 70% and the midpoint of the response, the EC50, lay at 5.45 ± 2.63 µM.

As for `CNC[C@H](O)c1ccc(O)c(O)c1` [epinephrine], the CFTR current result in [7] is on record as “evokes a similar current”.

As for `CC(C)=CCC/C(C)=C/C=C/C(C)=C/C=C/C(C)=C/C=C/C=C(C)/C=C/C=C(C)/C=C/C=C(\C)CCC=C(C)C` [licopene], the “stimulation of cAMP” value at SNORF25 [3] is given as “no stimulation of cAMP”.

As for `CCCCCCCCCCCCCCCCOC[C@@H](O)COP(=O)([O-])OCC[N+](C)(C)C` [lyso-PAF], the “potency / activation at typical PAF receptors” value at PAF receptors is recorded as “not activated”. Also, in test [4] (basal (1.7 mM) and stimulatory (16.7 mM) glucose, read-out: EC50 of insulin release), the EC50 was around 100 µM.

Turning to `C=C1CC[C@H](O)C/C1=C/C=C1\CCC[C@]2(C)[C@@H]([C@H](C)CCCC(C)C)CC[C@@H]12` [vitamin D3], the “stimulation of cAMP” value on SNORF25 [3] was “no stimulation of cAMP”.

For PAF(C16), the CFTR current response entry on SNORF25 [6] was “robust responses”. For the same compound, the “% of PAF(C18) Response” value on SNORF25 [3] was found to be 110%.

Take vitamin E: the “stimulation of cAMP” value on SNORF25 [3] is “no stimulation of cAMP”.
